This is an account of results in ChEMBL document CHEMBL6103598, “One-Pot Synthesis of Novel Tetrasubstituted α-Aminophosphonates Derived from α-Methylphosphoserine and In Vivo Evaluation as Anti-Inflammatory Agents” (J Med Chem, 2025).

Active and inactive are the calls of the source. The rule behind the calls is not given here.

The test system of one data set is Mus musculus. Description: Antiinflammatory activity against TPA-induced ear edema in female CD1 mouse model assessed as reduction in ear edema administered topically incubated for 4 hrs measured per ear. Format: functional, organism-based.
Conditions: not given
For the molecule `COc1ccc2cc([C@H](C)C(=O)O)ccc2c1` [NAPROXEN], the Activity entry was “Dose-dependent-effect”.

Take `CCC(=O)OCC(C)(N[C@@H](C)c1ccccc1)P(=O)(OC)OC` (stereo partly drawn): the Activity result was “Dose-dependent-effect”.

Regarding `COc1ccc2cc([C@H](C)C(=O)OCC(C)(NCc3ccccc3)P(=O)(OC)OC)ccc2c1` (stereo partly drawn), the Activity entry was “Dose-dependent-effect”.

For the molecule `COP(=O)(OC)C(C)(COC(=O)c1ccccc1)NCc1ccccc1` (stereo not drawn), the Activity entry is “Dose-dependent-effect”.

For `COc1ccc2cc([C@H](C)C(=O)OCC(C)(N[C@@H](C)c3ccccc3)P(=O)(OC)OC)ccc2c1` (stereo partly drawn), the Activity entry was “Dose-dependent-effect”.

Regarding `COP(=O)(OC)C(C)(COC(=O)c1ccccc1)N[C@@H](C)c1ccccc1` (stereo partly drawn), the Activity result is “Dose-dependent-effect”.

Consider `CCC(=O)OCC(C)(NCc1ccccc1)P(=O)(OC)OC` (stereo not drawn), for which the Activity entry was “Dose-dependent-effect”.

The test system of the next data set is Mus musculus. Description: Antiinflammatory activity against TPA-induced ear edema in female CD1 mouse model assessed as decrease in NLR value at 5.7 mg measured per ear administered topically incubated for 4 hrs by microscopic analysis relative to control. Format: functional. Set-up: scale not given: the % may be the effect or the level left.
Conditions: not given
On to `COc1ccc2cc([C@H](C)C(=O)OCC(C)(N[C@@H](C)c3ccccc3)P(=O)(OC)OC)ccc2c1` (stereo partly drawn), for which the Activity turned out to be 46.7%.

With `CCC(=O)OCC(C)(NCc1ccccc1)P(=O)(OC)OC` (stereo not drawn), the Activity is 48%.

Another data set relates to Mus musculus. Put plainly: Antiinflammatory activity against CFA-induced paw edema in female CD1 mouse model assessed as reduction in paw swelling at 10 mg/kg, po preincubated with CFA followed by compound addition and measured after 25 to 28 hrs relative to control. Format: functional. The settings on record: time 25-28 hrs. Set-up: scale not given: the % may be the effect or the level left.
In the case of `COc1ccc2cc([C@H](C)C(=O)O)ccc2c1` [NAPROXEN], the Activity came to 39.8%.

Consider `CCC(=O)OCC(C)(N[C@@H](C)c1ccccc1)P(=O)(OC)OC` (stereo partly drawn), for which the Activity is 21.7%.

On to `COc1ccc2cc([C@H](C)C(=O)OCC(C)(NCc3ccccc3)P(=O)(OC)OC)ccc2c1` (stereo partly drawn), for which the Activity was determined as 21.7%.

For the molecule `COc1ccc2c(c1)c(CC(=O)O)c(C)n2C(=O)c1ccc(Cl)cc1` [INDOMETHACIN], the Activity was found to be 36.5%.

For the molecule `COP(=O)(OC)C(C)(COC(=O)c1ccccc1)NCc1ccccc1` (stereo not drawn), the Activity is 21.7%.

For `COc1ccc2cc([C@H](C)C(=O)OCC(C)(N[C@@H](C)c3ccccc3)P(=O)(OC)OC)ccc2c1` (stereo partly drawn), the Activity worked out at 21.7%.

On to `COP(=O)(OC)C(C)(COC(=O)c1ccccc1)N[C@@H](C)c1ccccc1` (stereo partly drawn), for which the Activity turned out to be 21.7%.

Consider `CCC(=O)OCC(C)(NCc1ccccc1)P(=O)(OC)OC` (stereo not drawn), for which the Activity came out at 21.7%.

Another data set deals with Mus musculus. Description: Antiinflammatory activity against TPA-induced ear edema in female CD1 mouse model assessed as decrease in NLR value at 1 mg measured per ear administered topically incubated for 4 hrs by microscopic analysis relative to control. Set-up: scale not given: the % may be the effect or the level left.
Conditions: not given
Format: functional.
Regarding `COc1ccc2cc([C@H](C)C(=O)O)ccc2c1` [NAPROXEN], the Activity amounted to 57.1%.

For `COc1ccc2c(c1)c(CC(=O)O)c(C)n2C(=O)c1ccc(Cl)cc1` [INDOMETHACIN], the Activity was 59.3%.

A further data set concerns Mus musculus. Put plainly: Antiinflammatory activity against CFA-induced paw edema in female CD1 mouse model assessed as reduction in paw swelling by measuring AUC at 10 mg/kg, po preincubated with compound for 30 mins followed by CFA stimulation and measured after 2 to 6 hrs relative to control. As to conditions: time 2.5-6.5 hrs. Format: functional. Set-up: scale not given: the % may be the effect or the level left.
Consider `COc1ccc2cc([C@H](C)C(=O)O)ccc2c1` [NAPROXEN], for which the Activity was found to be 55.4%.

Consider `CCC(=O)OCC(C)(N[C@@H](C)c1ccccc1)P(=O)(OC)OC` (stereo partly drawn), for which the Activity amounted to 47.8%.

As for `COc1ccc2cc([C@H](C)C(=O)OCC(C)(NCc3ccccc3)P(=O)(OC)OC)ccc2c1` (stereo partly drawn), the Activity is reported as 47.8%.

Take `COc1ccc2c(c1)c(CC(=O)O)c(C)n2C(=O)c1ccc(Cl)cc1` [INDOMETHACIN]: the Activity was 58.7%.

`COP(=O)(OC)C(C)(COC(=O)c1ccccc1)NCc1ccccc1` (stereo not drawn): the Activity was 47.8%.

Take `COc1ccc2cc([C@H](C)C(=O)OCC(C)(N[C@@H](C)c3ccccc3)P(=O)(OC)OC)ccc2c1` (stereo partly drawn): the Activity came out at 47.8%.

Turning to `COP(=O)(OC)C(C)(COC(=O)c1ccccc1)N[C@@H](C)c1ccccc1` (stereo partly drawn), the Activity came out at 47.8%.

In the case of `CCC(=O)OCC(C)(NCc1ccccc1)P(=O)(OC)OC` (stereo not drawn), the Activity came out at 47.8%.

A further data set concerns Mus musculus. Put plainly: Antiinflammatory activity against TPA-induced ear edema in female CD1 mouse model assessed as decrease in NLR value at 3 mg measured per ear administered topically incubated for 4 hrs by microscopic analysis relative to control.
Conditions: not given
Set-up: scale not given: the % may be the effect or the level left. Format: functional.
On to `COP(=O)(OC)C(C)(COC(=O)c1ccccc1)N[C@@H](C)c1ccccc1` (stereo partly drawn), for which the Activity is 64.7%.

In another data set the test system is Mus musculus. Put plainly: Antiinflammatory activity against CFA-induced paw edema in female CD1 mouse model assessed as reduction in paw swelling at 10 mg/kg, po preincubated with compound for 30 mins followed by CFA stimulation and measured after 2 to 6 hrs. Format: functional, organism-based. As to conditions: time 2.5-6.5 hrs.
Consider `COc1ccc2cc([C@H](C)C(=O)O)ccc2c1` [NAPROXEN], for which the result was Active.

On to `CCC(=O)OCC(C)(N[C@@H](C)c1ccccc1)P(=O)(OC)OC` (stereo partly drawn), for which the result was Active.

`COc1ccc2cc([C@H](C)C(=O)OCC(C)(NCc3ccccc3)P(=O)(OC)OC)ccc2c1` (stereo partly drawn): the result was Active.

`COc1ccc2c(c1)c(CC(=O)O)c(C)n2C(=O)c1ccc(Cl)cc1` [INDOMETHACIN]: the outcome was Active.

Consider `COP(=O)(OC)C(C)(COC(=O)c1ccccc1)NCc1ccccc1` (stereo not drawn), for which the outcome was Active.

With `COc1ccc2cc([C@H](C)C(=O)OCC(C)(N[C@@H](C)c3ccccc3)P(=O)(OC)OC)ccc2c1` (stereo partly drawn), the outcome was Active.

`COP(=O)(OC)C(C)(COC(=O)c1ccccc1)N[C@@H](C)c1ccccc1` (stereo partly drawn): the outcome was Active.

Regarding `CCC(=O)OCC(C)(NCc1ccccc1)P(=O)(OC)OC` (stereo not drawn), the outcome was Active.

For a further data set, the system named is Mus musculus. Description: Antiinflammatory activity against CFA-induced paw edema in female CD1 mouse model assessed as reduction in paw swelling at 10 mg/kg, po preincubated with compound for 30 mins followed by CFA stimulation and measured after 24 hrs. Format: functional, organism-based. The settings on record: time 24.5 hrs.
As to `COc1ccc2cc([C@H](C)C(=O)O)ccc2c1` [NAPROXEN], the result was inactive.

Consider `CCC(=O)OCC(C)(N[C@@H](C)c1ccccc1)P(=O)(OC)OC` (stereo partly drawn), for which the result was inactive.

Turning to `COc1ccc2cc([C@H](C)C(=O)OCC(C)(NCc3ccccc3)P(=O)(OC)OC)ccc2c1` (stereo partly drawn), the result was inactive.

`COc1ccc2c(c1)c(CC(=O)O)c(C)n2C(=O)c1ccc(Cl)cc1` [INDOMETHACIN]: the outcome was inactive.

Take `COP(=O)(OC)C(C)(COC(=O)c1ccccc1)NCc1ccccc1` (stereo not drawn): the outcome was inactive.

Turning to `COc1ccc2cc([C@H](C)C(=O)OCC(C)(N[C@@H](C)c3ccccc3)P(=O)(OC)OC)ccc2c1` (stereo partly drawn), the outcome was inactive.

For the molecule `COP(=O)(OC)C(C)(COC(=O)c1ccccc1)N[C@@H](C)c1ccccc1` (stereo partly drawn), the outcome was inactive.

For the molecule `CCC(=O)OCC(C)(NCc1ccccc1)P(=O)(OC)OC` (stereo not drawn), the outcome was inactive.

For another data set, the system named is Mus musculus. Put plainly: Antiinflammatory activity against TPA-induced ear edema in female CD1 mouse model assessed as reduction in ear edema by measuring effective dose measured per ear incubated for 4 hrs administered topically.
Conditions: not given
Format: functional.
On to `COc1ccc2cc([C@H](C)C(=O)O)ccc2c1` [NAPROXEN], for which the ED50 is listed as 0.13 mg.

Consider `CCC(=O)OCC(C)(N[C@@H](C)c1ccccc1)P(=O)(OC)OC` (stereo partly drawn), for which the ED50 worked out at 0.66 mg.

Consider `COc1ccc2cc([C@H](C)C(=O)OCC(C)(NCc3ccccc3)P(=O)(OC)OC)ccc2c1` (stereo partly drawn), for which the ED50 was 0.53 mg.

As for `COc1ccc2c(c1)c(CC(=O)O)c(C)n2C(=O)c1ccc(Cl)cc1` [INDOMETHACIN], the ED50 is given as 0.54 mg.

In the case of `COP(=O)(OC)C(C)(COC(=O)c1ccccc1)NCc1ccccc1` (stereo not drawn), the ED50 is 0.49 mg.

With `COc1ccc2cc([C@H](C)C(=O)OCC(C)(N[C@@H](C)c3ccccc3)P(=O)(OC)OC)ccc2c1` (stereo partly drawn), the ED50 is reported as 0.26 mg.

Consider `COP(=O)(OC)C(C)(COC(=O)c1ccccc1)N[C@@H](C)c1ccccc1` (stereo partly drawn), for which the ED50 was found to be 0.46 mg.

With `CCC(=O)OCC(C)(NCc1ccccc1)P(=O)(OC)OC` (stereo not drawn), the ED50 is given as 0.48 mg.

The subject of another data set is Mus musculus. Description: Antiinflammatory activity against TPA-induced ear edema in female CD1 mouse model assessed as reduction in ear edema by measuring maximum efficacy at 0.25 to 1.25 mg measured per ear incubated for 4 hrs administered topically relative to control. Format: functional. As to conditions: CD1, topical, dose 0.25-1.25 mg.
`COc1ccc2cc([C@H](C)C(=O)O)ccc2c1` [NAPROXEN]: the Emax (in general, the greatest response seen or fitted, relative to the assay's reference) turned out to be 90.6%.

For `CCC(=O)OCC(C)(N[C@@H](C)c1ccccc1)P(=O)(OC)OC` (stereo partly drawn), the Emax was 85.9%.

In the case of `COc1ccc2cc([C@H](C)C(=O)OCC(C)(NCc3ccccc3)P(=O)(OC)OC)ccc2c1` (stereo partly drawn), the Emax came to 84.8%.

On to `COc1ccc2c(c1)c(CC(=O)O)c(C)n2C(=O)c1ccc(Cl)cc1` [INDOMETHACIN], for which the Emax stood at 89.3%.

Turning to `COP(=O)(OC)C(C)(COC(=O)c1ccccc1)NCc1ccccc1` (stereo not drawn), the Emax is 83.3%.

Consider `COc1ccc2cc([C@H](C)C(=O)OCC(C)(N[C@@H](C)c3ccccc3)P(=O)(OC)OC)ccc2c1` (stereo partly drawn), for which the Emax was found to be 93.9%.

As for `COP(=O)(OC)C(C)(COC(=O)c1ccccc1)N[C@@H](C)c1ccccc1` (stereo partly drawn), the Emax worked out at 91.8%.

Take `CCC(=O)OCC(C)(NCc1ccccc1)P(=O)(OC)OC` (stereo not drawn): the Emax was found to be 90.1%.

System in another data set: not listed separately
Description: Octanol/water partition coefficient, logP of compound by shake flask method. Format: physicochemical.
Conditions: not given
As to `CCC(=O)OCC(C)(N[C@@H](C)c1ccccc1)P(=O)(OC)OC` (stereo partly drawn), the logP – broadly, a log measure of how a compound divides between an organic and an aqueous phase – was found to be 3.5.

`COc1ccc2cc([C@H](C)C(=O)OCC(C)(NCc3ccccc3)P(=O)(OC)OC)ccc2c1` (stereo partly drawn) registered a logP of 4.5.

Consider `COc1ccc2c(c1)c(CC(=O)O)c(C)n2C(=O)c1ccc(Cl)cc1` [INDOMETHACIN], for which the logP stood at 3.99.

The molecule `COP(=O)(OC)C(C)(COC(=O)c1ccccc1)NCc1ccccc1` (stereo not drawn) showed a lipophilicity (logP) of 4.2.

With `COc1ccc2cc([C@H](C)C(=O)OCC(C)(N[C@@H](C)c3ccccc3)P(=O)(OC)OC)ccc2c1` (stereo partly drawn), the logP turned out to be 4.8.

As to `COP(=O)(OC)C(C)(COC(=O)c1ccccc1)N[C@@H](C)c1ccccc1` (stereo partly drawn), the logP was 4.4.

`CCC(=O)OCC(C)(NCc1ccccc1)P(=O)(OC)OC` (stereo not drawn) registered a logP of 3.3.

The subject of a further data set is Mus musculus. Put plainly: Potency index, ratio of Indomethacin ED50 to test compound ED50 for antiinflammatory activity against TPA-induced ear edema in female CD1 mouse model assessed as reduction in ear edema by measuring effective dose measured per ear incubated for 4 hrs administered topically. Format: functional.
Conditions: not given
With `CCC(=O)OCC(C)(N[C@@H](C)c1ccccc1)P(=O)(OC)OC` (stereo partly drawn), the “Ratio ED50” value came to 0.8.

With `COc1ccc2cc([C@H](C)C(=O)OCC(C)(NCc3ccccc3)P(=O)(OC)OC)ccc2c1` (stereo partly drawn), the “Ratio ED50” value is recorded as 1.

Take `COP(=O)(OC)C(C)(COC(=O)c1ccccc1)NCc1ccccc1` (stereo not drawn): the “Ratio ED50” value is 1.1.

Take `COc1ccc2cc([C@H](C)C(=O)OCC(C)(N[C@@H](C)c3ccccc3)P(=O)(OC)OC)ccc2c1` (stereo partly drawn): the “Ratio ED50” value worked out at 2.1.

Take `COP(=O)(OC)C(C)(COC(=O)c1ccccc1)N[C@@H](C)c1ccccc1` (stereo partly drawn): the “Ratio ED50” value is reported as 1.2.

As for `CCC(=O)OCC(C)(NCc1ccccc1)P(=O)(OC)OC` (stereo not drawn), the “Ratio ED50” value is 1.1.
